# Publication PMC4718399 (Nature chemical biology, 2015)
# Columns and labels:
# β2R [1] = biological target: T1, β2R (Homo sapiens, UniProt P07550, N187E, form not given); assay: Bimane fluorescence spectroscopy; format: biochemical; details: for basal (agonist-free) bimane emission λmax: bimane-labelled receptor reconstituted in rHDL of the given lipid, no ligand; for rate and magnitude of change in λmax upon agonist: rHDL of the given lipid, 200 μM isoproterenol, relative to basal fluorescence in detergent
# β2R [2] = biological target: T1, β2R; format: biochemical; details: 200μM solubilized lipid; for modulation of β2R activation by solubilized phospholipid: 200μM isoproterenol
# β2R [3] = biological target: T1, β2R; assay: Mass spectrometry quantification of lipids bound to purified β2R; details: β2R purified from Sf9 cells with 0.5% DDM
Molecule,basal (agonist-free) bimane emission λmax (β2R [1]),rate and magnitude of change in λmax upon agonist (β2R [1]),modulation of β2R activation by solubilized phospholipid (β2R [2]),share of all β2R-bound lipids (β2R [3]),"basal λmax shift (β2R [2]; 1μM β2R, 500μM DDM, 600μM cholate) [nm]"
CCCCCCCC/C=C\CCCCCCCC(=O)OC[C@H](COP(=O)([O-])OCC[N+](C)(C)C)OC(=O)CCCCCCC/C=C\CCCCCCCC [DOPC],about 450 nm,intermediate,little or no effect,–,–
phosphatidylglycerol [PG],–,–,–,over 16%,–
CCCCCCCC/C=C\CCCCCCCC(=O)OC[C@H](COP(=O)(O)OCCN)OC(=O)CCCCCCC/C=C\CCCCCCCC [DOPE],about 450 nm,smallest change and slowest rate of change,little or no effect,–,–
CCCCCCCC/C=C\CCCCCCCC(=O)OC[C@H](COP(=O)(O)OC[C@H](N)C(=O)O)OC(=O)CCCCCCC/C=C\CCCCCCCC [DOPS],–,–,positive effect albeit not as strong,–,–
CCCCCCCC/C=C\CCCCCCCC(=O)OC[C@H](COP(=O)(O)OCC(O)CO)OC(=O)CCCCCCC/C=C\CCCCCCCC (stereo partly shown) [DOPG],about 455 nm,fastest rate of change and the largest shift in λmax,strongest positive modulator,over 7%,4
